Measured values taken from US12104173B2, “Method for differentiation of human pluripotent stem cell lines in suspension culture” (AGENCY FOR SCIENCE, TECHNOLOGY AND RESEARCH, priority 2018, dated 2024).

How the values were obtained:
Type in all cases: cell-based, human
[1] = test system: hES-3 microcarrier aggregates; test: capillary Western blot of Wnt/β-catenin signalling proteins; conditions: hES-3-MC; upon induction with CHIR (15 μM CHIR, 30 ng/ml BMP4, 40 ng/ml Activin A)
Experimental: Day 7 hES-3-MC aggregates from static or agitation conditions were subjected to differentiation using BMP4 protocol (50 ng/ml BMP4) or optimized CHIR-based protocol (30 ng/ml BMP4, 40 ng/ml Activin A and 15 μM CHIR). Cell lysates before start of differentiation (0 hours) and 24 hours after onset of differentiation were analysed for proteins involved in Wnt/β-catenin signalling (T-BRA, TCF-1 and LEF-1) and BMP4 signalling (SMAD7, SMAD1 and phospho SMAD1/5) using an automated Capillary Western Blot system (Peggy Sue). All samples including GAPDH as a protein loading control were run in parallel. (A) is an image showing digitalized chemiluminescence signals represented as band intensities. Corresponding molecular weight of detected proteins are indicated. […] Graphical representation of chemiluminescence intensity of proteins (expressed as a percentage of GAPDH expression) involved in (B) Wnt/β-catenin signalling and (C) BMP4 signalling. […]
Capillary Western blot was performed using a fully automated system, Peggy Sue (Proteinsimple, R&D, USA). Proteins were separated, detected and quantified according to manufacturer's protocol (www.proteinsimple.com) based on size separation (12-230 kDa). […] (all from Cell Signaling Technology)[1:50 diluted SMAD7 (Sigma-Aldrich)] followed by horseradish peroxidase conjugated secondary antibody and detected with Luminol/Peroxidase substrate. […]

[2] = test system: O-neg hiPSC line (D5) expanded in agitated microcarrier cultures; test: DoE multifactorial analysis of KDR+ cells, O-neg hiPSC; conditions: CHIR exposure for 24 hours, 4 days post differentiation
Excerpt: (B) Plot of KDR levels (%) for respective conditions tested (day 4 post differentiation). Conditions 27, 28 and 29 are triplicates of the same condition tested. […] Act=Activin A; CHI=CHIR-99021 for 24 hr, CH2=CHIR-99021 from 24-48 hr; BMP=BMP4. Computed P-values are indicated below the chart.
These findings were also confirmed using an O-neg hiPSC line (D5) expanded in agitated microcarrier cultures (FIG. 6). […] In summary, from the Design of experiment analysis, it was established that a BMP4 dose of 10 to 50 ng/ml, Activin A dose of 25 to 50 ng/ml and exposure of CHIR for 24 hours at a dose of 6 to 12 μM would be efficient for the generation of KDR+ cells.
Design of experiments (DoE) using a resolution IV Fractional Factorial Design was performed using the MODDE software (Sartorius Stedim Biotech, Germany) to evaluate initial BMP4, Activin A and CHIR-99021, doses and duration of exposure for their effects on the following response factors: induction of KDR+ cells 4 days post mesoderm induction or total hematopoietic precursors generated 2 weeks post differentiation. […]

X13 O-neg hiPSC line = test: CHIR dose: hematopoietic/erythroid differentiation of agitated hPSC-MC aggregates; conditions: optimal dose of CHIR-99021, day 4
hES-3 hESC line = test: as above; conditions: optimal dose of CHIR-99021, day 4

Cc1c[nH]c(-c2cnc(NCCNc3ccc(C#N)cn3)nc2-c2ccc(Cl)cc2Cl)n1 [CHIR-99021, 6-[[2-[[4-(2,4-Dichlorophenyl)-5-(5-methyl-1H-imidazol-2-yl)-2-pyrimidinyl]amino]ethyl]amino]-3-pyridinecarbonitrile]
Wnt/β-catenin signalling proteins TCF-1, LEF-1 and T-BRA [1]: detected as early as 24 hours
effect of factor on KDR+ cells (DoE) [2]: significant factors for increased KDR+ cells
Mesoderm induction % KDR+ PDGFRα− (X13 O-neg hiPSC line): 40.8%
Mesoderm induction % KDR+ PDGFRα− (hES-3 hESC line): 14.6%
